system: Aphis craccivora; experiment: Insecticidal activity against Aphis craccivora (cowpea aphid) assessed as mortality at 62.5 ug/mL measured after 1 day; assay type: functional; settings: 24 h

Question: `O=[N+]([O-])/C=C1\NCCN1Cc1ccc(Cl)nc1` was tested. Which mortality at 62.5 µg/mL did it give?
Answer: 94%

system: Aphis craccivora; experiment: Insecticidal activity against Aphis craccivora (cowpea aphid) assessed as mortality at 125 ug/mL measured after 1 day; assay type: functional; settings: 24 h

Question: Which mortality at 125 µg/mL does the source give for `CC(C)N1CC([N+](=O)[O-])=C2N(CC3CCCC3N2Cc2ccc(Cl)nc2)C1` (stereo not given) here?
Answer: 56%

system: Aphis craccivora; experiment: Insecticidal activity against Aphis craccivora (cowpea aphid) assessed as mortality at 450 ug/mL measured after 1 day; assay type: functional; settings: 24 h

Question: For `CC(C)N1CC([N+](=O)[O-])=C2N(CC3CCCC3N2Cc2ccc(Cl)nc2)C1` (stereo not given), which mortality at 450 µg/mL is on record?
Answer: 88%

system: Aphis craccivora; experiment: Insecticidal activity against Aphis craccivora (cowpea aphid) assessed as mortality at 500 ug/mL measured after 1 day; assay type: functional; settings: 24 h

Question: For `CCCCN1CC([N+](=O)[O-])=C2N(CC3CCCC3N2Cc2ccc(Cl)nc2)C1` (stereo not given), which mortality at 500 µg/mL is on record?
Answer: 32%

Question: `CC1CCC2CN/C(=C\[N+](=O)[O-])N(Cc3ccc(Cl)nc3)C12` (stereo not given) was tested. Which mortality at 500 µg/mL did it give?
Answer: 51%

Question: `CCCN1CC([N+](=O)[O-])=C2N(CC3CCCC3N2Cc2ccc(Cl)nc2)C1` (stereo not given) was tested. Which mortality at 500 µg/mL did it give?
Answer: 61%

Question: With `O=[N+]([O-])/C=C1\NC2CCCC2CN1Cc1ccc(Cl)nc1` (stereo not given) as the molecule, how does the mortality at 500 µg/mL read?
Answer: < 59%

Question: For `CCN1CC([N+](=O)[O-])=C2N(CC3CCCC3N2Cc2ccc(Cl)nc2)C1` (stereo not given), which mortality at 500 µg/mL is on record?
Answer: 90%

Question: With `O=[N+]([O-])/C=C1\NCC2CCCC2N1Cc1ccc(Cl)nc1` (stereo not given) as the molecule, how does the mortality at 500 µg/mL read?
Answer: 83%

Question: `N#C/N=C1\NCC2CCCC2N1Cc1ccc(Cl)nc1` (stereo not given) was tested. Which mortality at 500 µg/mL did it give?
Answer: 38%

Question: For `O=[N+]([O-])C1=C2N(CC3CCCC3N2Cc2ccc(Cl)nc2)CN(CCO)C1` (stereo not given), which mortality at 500 µg/mL is on record?
Answer: 60%

Question: Which mortality at 500 µg/mL does the source give for `CS/C(=N\C#N)NCC1CCCC1NCc1ccc(Cl)nc1` (stereo not given) here?
Answer: 34%

Question: Which mortality at 500 µg/mL does the source give for `O=[N+]([O-])/C=C1\NCC2CCCC2N1Cc1cccnc1` (stereo not given) here?
Answer: 82%

Question: With `CN1CC([N+](=O)[O-])=C2N(CC3CCCC3N2Cc2ccc(Cl)nc2)C1` (stereo not given) as the molecule, how does the mortality at 500 µg/mL read?
Answer: 54%

system: Aphis craccivora; experiment: Insecticidal activity against Aphis craccivora (cowpea aphid) assessed as mortality at 15.625 ug/mL measured after 1 day; assay type: functional; settings: 24 h

Question: `O=[N+]([O-])/C=C1\NCCN1Cc1ccc(Cl)nc1` was tested. Which mortality at 15.625 µg/mL did it give?
Answer: 60%

Source: ChEMBL document CHEMBL3046059, “Syntheses and biological activities of octahydro-1H-cyclopenta[d]pyrimidine derivatives” (2007)
